Measurements: patent US10344024B2, “Compounds as ROR gamma modulators” (Glenmark Pharmaceuticals S.A., priority 2015, dated 2019)

Biological target: T1, GST-tagged ROR gamma ligand binding domain (LBD) (Homo sapiens, UniProt P51449)
T1 construct: purchased Invitrogen
T1 sequence (P51449 269-508 limits assumed): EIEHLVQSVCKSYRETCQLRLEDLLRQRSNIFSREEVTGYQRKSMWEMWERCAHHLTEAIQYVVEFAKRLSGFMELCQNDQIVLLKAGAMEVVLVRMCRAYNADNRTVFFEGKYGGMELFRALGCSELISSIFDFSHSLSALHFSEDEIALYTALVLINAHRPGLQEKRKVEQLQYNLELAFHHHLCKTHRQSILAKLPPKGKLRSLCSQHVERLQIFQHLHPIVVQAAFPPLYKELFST
Assay: TR-FRET assay for ROR gamma (LanthaScreen co-activator peptide recruitment)
Format: biochemical
Conditions: for inhibition at 1 µM: compound concentration 1 μM; for inhibition at 1 µM / inhibition at 10 µM: TR-FRET ratio 520/495, percent of control; for inhibition at 10 µM: compound concentration 10 μM; for IC50: from dose response curve, nonlinear regression, read-out: IC50 range
Excerpt: The compounds described herein were screened for ROR gamma modulator activity using the TR-FRET assay (LanthaScreen™ available from Invitrogen of Carlsbad, Calif.) as described in JBC 2011, 286, 26: 22707-10; and Drug Metabolism and Disposition 2009, 37, 10: 2069-78.
Binding of the co-activator peptide, causes an increase in the TR-FRET signal while binding of an antagonist decreases the recruitment of the co-activator peptide, causing a decrease in the TR-FRET signal compared to control with no compound. The assay was performed using a two-step procedure, pre-incubation step with the compound followed by the detection step on addition of the anti-GST tagged terbium (Tb) and fluorescein tagged fluorophores as the acceptor.
Test compounds or reference compounds such as T0901317 (Calbiochem) were dissolved in dimethylsulfoxide (DMSO) to prepare 10.0 mM stock solutions and diluted to the desired concentration. The final concentration of DMSO in the reaction was 4% (v/v). The assay mixture was prepared by mixing 10 nM of the GST-tagged ROR gamma ligand binding domain (LBD) in the assay buffer containing 25 mM HEPES (pH 7.4), 100 mM NaCl, 5 mM DTT and 0.01% BSA with or without the desired concentration of the compound. The reaction was incubated at 22° C. for 1 hour. The pre-incubation step was terminated by addition of the detection mixture containing 300 nM Fluorescein-D22 co-activator peptide and 10 nM lantha screen Tb-anti GST antibody into the reaction mixture.
After shaking for 5 minutes the reaction was further incubated for 1 hour at room temperature and read at 4° C. on an Infinite F500 reader as per the kit instructions (Invitrogen). The inhibition of test compound was calculated based on the TR-FRET ratio of 520/495. The activity was calculated as a percent of control reaction. IC50 values were calculated from dose response curve by nonlinear regression analysis using GraphPad Prism software.

Structure (SMILES) | inhibition at 1 µM | inhibition at 10 µM | IC50
CCC(F)(F)c1ccc(CC(=O)Nc2ccc(-c3nccnc3-c3ccc(Cl)cc3)cc2)cc1 [Example 1, N-(4-(3-(4-chlorophenyl)pyrazin-2-yl)phenyl)-2-(4-(1,1-difluoropropyl)phenyl) acetamide] | 80.9% | 81.5% | < 50 nM
CC(O)C(F)(F)c1ccc(CC(=O)Nc2ccc(-c3nccnc3-c3ccc(Cl)cc3)cc2)cc1 (centres unmarked) [Example 2, N-(4-(3-(4-chlorophenyl)pyrazin-2-yl)phenyl)-2-(4-(1,1-difluoro-2-hydroxypropyl)phenyl)acetamide] | 76.1% | 82.7% | < 50 nM
COCC(F)(F)c1ccc(CC(=O)Nc2ccc(-c3nccnc3-c3ccc(Cl)cc3)cc2)cc1 [Example 3, N-(4-(3-(4-Chlorophenyl)pyrazin-2-yl)phenyl)-2-(4-(1,1-difluoro-2-methoxyethyl)phenyl)acetamide] | 74% | 84.8% | 50 to 100 nM
CC(O)C(F)(F)c1ccc(CC(=O)Nc2ccc(-c3nccnc3-c3cccc(Cl)c3)cc2)cc1 (centres unmarked) [Example 4, N-(4-(3-(3-Chlorophenyl)pyrazin-2-yl)phenyl)-2-(4-(1,1-difluoro-2-hydroxypropyl)phenyl)acetamide] | 60.7% | 77.8% | > 500 nM
CCC(F)(F)c1ccc(CC(=O)Nc2ccc(-c3nccnc3-c3ccccc3Cl)cc2)cc1 [Example 5, N-(4-(3-(2-Chlorophenyl)pyrazin-2-yl)phenyl)-2-(4-(1,1-difluoropropyl)phenyl)acetamide] | 81.5% | 84.4% | < 50 nM
CCC(F)(F)c1ccc(CC(=O)Nc2ccc(-c3nccnc3-c3ccc(Cl)cc3F)cc2)cc1 [Example 6, N-(4-(3-(4-Chloro-2-fluorophenyl)pyrazin-2-yl)phenyl)-2-(4-(1,1-difluoropropyl)phenyl)acetamide] | 87.4% | 86.4% | < 50 nM
CCC(F)(F)c1ccc(CC(=O)Nc2ccc(-c3ncccc3-c3ccc(Cl)cc3)cc2)cc1 [Example 7, N-(4-(3-(4-Chlorophenyl)pyridin-2-yl)phenyl)-2-(4-(1,1-difluoropropyl)phenyl)acetamide] | 83% | 86.2% | < 50 nM
CC(O)C(F)(F)c1ccc(CC(=O)Nc2ccc(-c3nccnc3-c3ccc(F)cc3)cc2)cc1 (centres unmarked) [Example 8, 2-(4-(1,1-Difluoro-2-hydroxypropyl)phenyl)-N-(4-(3-(4-fluorophenyl)pyrazin-2-yl)phenyl)acetamide] | 73.6% | 85.3% | 100 to 500 nM
CC(O)C(F)(F)c1ccc(CC(=O)Nc2ccc(-c3nccnc3-c3ccc(F)c(F)c3)cc2)cc1 (centres unmarked) [Example 9, 2-(4-(1,1-Difluoro-2-hydroxypropyl)phenyl)-N-(4-(3-(3,4-difluorophenyl)pyrazin-2-yl)phenyl)acetamide] | 55.2% | 72.1% | > 500 nM
CCC(F)(F)c1ccc(CC(=O)Nc2ccc(-c3nccnc3-c3ccc(F)cc3F)cc2)cc1 [Example 10, N-(4-(3-(2,4-Difluorophenyl)pyrazin-2-yl)phenyl)-2-(4-(1,1-difluoropropyl)phenyl)acetamide] | 78.2% | 83% | 50 to 100 nM
CCC(F)(F)c1ccc(CC(=O)Nc2ccc(-c3nccnc3-c3ccccc3F)cc2)cc1 [Example 11, 2-(4-(1,1-Difluoropropyl)phenyl)-N-(4-(3-(2-fluorophenyl)pyrazin-2-yl)phenyl)acetamide] | 78.8% | 83.8% | < 50 nM
CCC(F)(F)c1ccc(CC(=O)Nc2ccc(-c3nccnc3-c3ccc(C(F)(F)F)cc3)cc2)cc1 [Example 12, 2-(4-(1,1-Difluoropropyl)phenyl)-N-(4-(3-(4-(trifluoromethyl)phenyl)pyrazin-2-yl)phenyl)acetamide] | 85.6% | 83% | < 50 nM
CCC(F)(F)c1ccc(CC(=O)Nc2ccc(-c3nccnc3-c3ccc(C)cc3)cc2)cc1 [Example 13, 2-(4-(1,1-Difluoropropyl)phenyl)-N-(4-(3-(p-tolyl)pyrazin-2-yl)phenyl)acetamide] | 82.7% | 84.4% | < 50 nM
CCC(F)(F)c1ccc(CC(=O)Nc2ccc(-c3ncccc3-c3ccc(F)cc3)cc2)cc1 [Example 14, 2-(4-(1,1-Difluoropropyl)phenyl)-N-(4-(3-(4-fluorophenyl)pyridin-2-yl)phenyl)acetamide] | 74.4% | 83.8% | 100 to 500 nM
CCC(F)(F)c1ccc(CC(=O)Nc2ccc(-c3nccnc3-c3ccccc3)cc2)cc1 [Example 15, 2-(4-(1,1-Difluoropropyl)phenyl)-N-(4-(3-phenylpyrazin-2-yl)phenyl)acetamide] | 72.2% | 80.6% | 100 to 500 nM
CCC(F)(F)c1ccc(CC(=O)Nc2ccc(-c3nccnc3-c3ccc(C#N)cc3)cc2)cc1 [Example 16, N-(4-(3-(4-Cyanophenyl)pyrazin-2-yl)phenyl)-2-(4-(1,1-difluoropropyl)phenyl)acetamide] | 69.9% | 60.5% | –
CCC(F)(F)c1ccc(CC(=O)Nc2ccc(-c3nccnc3-c3ccncc3)cc2)cc1 [Example 17, 2-(4-(1,1-Difluoropropyl)phenyl)-N-(4-(3-(pyridin-4-yl)pyrazin-2-yl)phenyl)acetamide] | 60.5% | 74.4% | –
CC(O)C(F)(F)c1ccc(CC(=O)Nc2ccc(-c3nccnc3N3CCC(F)(F)CC3)cc2)cc1 (centres unmarked) [Example 18, 2-(4-(1,1-Difluoro-2-hydroxypropyl)phenyl)-N-(4-(3-(4,4-difluoropiperidin-1-yl)pyrazin-2-yl)phenyl)acetamide] | 32.4% | 71.2% | –
CC(O)C(F)(F)c1ccc(CC(=O)Nc2ccc(-c3nccnc3N3CCOCC3)cc2)cc1 (centres unmarked) [Example 19, 2-(4-(1,1-Difluoro-2-hydroxypropyl)phenyl)-N-(4-(3-morpholinopyrazin-2-yl)phenyl)acetamide] | 42.2% | 48.8% | –
CCC(F)(F)c1ccc(CC(=O)Nc2ccc(-n3nc(C)cc3-c3ccc(F)cc3)cc2)cc1 [Example 20, 2-(4-(1,1-Difluoropropyl)phenyl)-N-(4-(5-(4-fluorophenyl)-3-methyl-1H-pyrazol-1-yl)phenyl)acetamide] | 65.5% | 78% | –
CCC(F)(F)c1ccc(CC(=O)Nc2ccc(-c3cnn(C(C)(C)C)c3-c3ccc(F)cc3)cc2)cc1 [Example 21, N-(4-(1-(tert-Butyl)-5-(4-fluorophenyl)-1H-pyrazol-4-yl)phenyl)-2-(4-(1,1-difluoropropyl)phenyl)acetamide] | 37.4% | 38.3% | –
CC(O)C(F)(F)c1ccc(CC(=O)Nc2ccc(-c3cnn(C(C)(C)C)c3-c3ccc(F)cc3)cc2)cc1 (centres unmarked) [Example 22, N-(4-(1-(tert-Butyl)-5-(4-fluorophenyl)-1H-pyrazol-4-yl)phenyl)-2-(4-(1,1-difluoro-2-hydroxypropyl)phenyl)acetamide] | 46.7% | 56.2% | –
CCC(F)(F)c1ccc(CC(=O)Nc2ccc(-c3nccnc3-c3cnn(C)c3)cc2)cc1 [Example 23, 2-(4-(1,1-Difluoropropyl)phenyl)-N-(4-(3-(1-methyl-1H-pyrazol-4-yl)pyrazin-2-y1)phenyl)acetamide] | 36.6% | 68.6% | –
CCC(F)(F)c1ccc(CC(=O)Nc2ccc(-c3nccnc3N3CCN(C(C)=O)CC3)cc2)cc1 [Example 24, N-(4-(3-(4-Acetylpiperazin-1-yl)pyrazin-2-yl)phenyl)-2-(4-(1,1-difluoropropyl)phenyl)acetamide] | 61.6% | 83.6% | –
CCC(F)(F)c1ccc(CC(=O)Nc2ccc(-c3nccnc3-c3ccc(=O)n(C)c3)cc2)cc1 [Example 25, 2-(4-(1,1-Difluoropropyl)phenyl)-N-(4-(3-(1-methyl-6-oxo-1,6-dihydropyridin-3-yl)pyrazin-2-yl)phenyl)acetamide] | 18.9% | 59.7% | –
